Test systems include M14; SNB-75; TK-10; SF-268; NCI-H226; SN12C; MOLT-4; CAKI-1; DU-145; SK-OV-3; SK-MEL-2; BT-549; K562; HT-29; SNB-19; 786-0; RXF 393; COLO 205; MDA-MB-435; UO-31.
Holding throughout (assay): growth of human tumour cells (NCI), 48 h

The structures appear in SMILES notation.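 96-well plates; 48 h exposure; 5 concentrations. Endpoints by linear interpolation between flanking doses. Not reached: highest tested concentration assigned. At the GI50, growth is halved.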 The source made the active and inactive calls. Rule as the data show it: active = GI50 up to about 1.1 µM and inactive = higher.

As to `COC(=O)[C@]1(c2cc3ccccc3[nH]2)CC2CN(C(=O)OCc3ccccc3)C1C=C2OC` (stereo partly drawn), the GI50 in the test on M14 is 20.8 µM (inactive); in the test on SNB-75, 23 µM (inactive); in the test on TK-10, 48.1 µM (inactive); in the test on SF-268, 37.2 µM (inactive); in the test on NCI-H226, 23.1 µM (inactive); in the test on SN12C, 36.1 µM (inactive). In addition, the GI50 in the test on MOLT-4 is 22.2 µM (inactive); with CAKI-1 it was 28.5 µM (inactive); in the test with DU-145, 35.5 µM (inactive); with SK-OV-3 it was 36.9 µM (inactive); in the test with SK-MEL-2 it was 17.5 µM (inactive); in the test with BT-549, 31 µM (inactive). Besides, the GI50 was 37.4 µM (inactive) in the test on K562; 25.7 µM (inactive) in the test on HT-29; 42.1 µM (inactive) in the test on SNB-19; 36.7 µM (inactive) in the test on 786-0; 22.7 µM (inactive) with RXF 393; 19 µM (inactive) with COLO 205. Besides, the GI50 in the test on MDA-MB-435 was 20.7 µM (inactive).

For `O=S(=O)(/C=C/C=C/S(=O)(=O)c1ccccc1)c1ccccc1`, the GI50 in the test on M14 is 0.507 µM (active); in the test on SNB-75, 6.61 µM (inactive); in the test on TK-10, 1.57 µM (inactive); in the test with SF-268 it was 1.7 µM (inactive); with NCI-H226 it was 7.62 µM (inactive); in the test on SN12C, 2 µM (inactive). The GI50 in the test on MOLT-4 was 0.315 µM (active); in the test on CAKI-1, 1.24 µM (inactive); with DU-145, 14.6 µM (inactive); in the test with SK-OV-3, 8 µM (inactive); with SK-MEL-2, 2.72 µM (inactive); in the test on BT-549, 1.15 µM (inactive). Besides, the GI50 with K562 was 0.269 µM (active); in the test on HT-29, 1.18 µM (inactive); with SNB-19, 17.5 µM (inactive); with 786-0, 0.537 µM (active); with RXF 393, 0.36 µM (active); in the test on COLO 205 it was 1.44 µM (inactive). The GI50 in the test with UO-31 is 1.46 µM (inactive); with MDA-MB-435, 1.45 µM (inactive).

Turning to `C=Cn1c([N+](=O)[O-])cnc1/C=C/c1ccc(C(=O)OCCN2CCOCC2)cc1`, the GI50 in the test on M14, with SNB-75, with TK-10, with SF-268, in the test with NCI-H226 and in the test with SN12C was > 100 µM (inactive) in each case. For the same compound, the GI50 was 38 µM (inactive) in the test on MOLT-4; > 100 µM (inactive) in the test with CAKI-1; > 100 µM (inactive) with DU-145; > 100 µM (inactive) in the test with SK-OV-3; > 100 µM (inactive) in the test with SK-MEL-2; > 100 µM (inactive) in the test on BT-549. The GI50 in the test with K562, in the test on HT-29, in the test with SNB-19, in the test with 786-0, in the test with RXF 393 and in the test on COLO 205 was > 100 µM (inactive) each time. The GI50 in the test on MDA-MB-435 is > 100 µM (inactive).

With `CCCCCCCCCCCCCCCCOP(=O)(O)OP(=O)(O)OCC1OC(n2cnc3c(N)ncnc32)C(O)C1O` (stereo not drawn), the GI50 in the test on M14 was 64.9 µM (inactive); with SNB-75, 24.4 µM (inactive); in the test with TK-10, > 100 µM (inactive); in the test on SF-268 it was 73.8 µM (inactive); in the test with NCI-H226 it was 54.6 µM (inactive); in the test with SN12C, 36.3 µM (inactive). The GI50 in the test with MOLT-4 was 23.5 µM (inactive); in the test on CAKI-1, 99.3 µM (inactive); in the test with DU-145 it was 69.3 µM (inactive); with SK-OV-3 it was 33 µM (inactive); with SK-MEL-2, 49.8 µM (inactive); with BT-549, 18.7 µM (inactive). Further, the GI50 in the test with K562 was 46.8 µM (inactive); in the test with HT-29, 39.9 µM (inactive); in the test on SNB-19 it was 34 µM (inactive); in the test with 786-0, 80.5 µM (inactive); in the test on RXF 393, 98.4 µM (inactive); in the test with COLO 205, > 100 µM (inactive). The values for the GI50 in the test on UO-31 and in the test on MDA-MB-435 were 60.5 µM (inactive) and 56.5 µM (inactive), respectively.

As for `O=c1[nH]/c(=C/c2ccc(OCc3ccccc3)cn2)c(=O)[nH]/c1=C/c1ccc(O)cc1`, the GI50 was 0.94 µM (active) in the test with M14; 0.762 µM (active) in the test with SNB-75; 0.931 µM (active) in the test with TK-10; 1.04 µM (active) with SF-268; 51.4 µM (inactive) with NCI-H226; 1.04 µM (active) in the test on SN12C. For the same compound, the GI50 was 0.301 µM (active) in the test on MOLT-4; 0.834 µM (active) with CAKI-1; 0.984 µM (active) in the test with DU-145; 4.99 µM (inactive) in the test on SK-OV-3; 1.33 µM (inactive) in the test on SK-MEL-2; 2.49 µM (inactive) in the test with BT-549. The GI50 in the test with K562 was 0.859 µM (active); in the test on HT-29 it was 1.48 µM (inactive); with SNB-19, 2.15 µM (inactive); in the test on 786-0, 0.612 µM (active); in the test on RXF 393, 0.865 µM (active); in the test with COLO 205, 1.45 µM (inactive). Moreover, the GI50 with UO-31 was 0.622 µM (active); in the test on MDA-MB-435, 0.109 µM (active).

For the compound `CCOC(=O)c1cccc(/N=N/Nc2cccc(C(=O)OCC)c2)c1`, the GI50 is > 100 µM (inactive) in the test on M14; 14.6 µM (inactive) in the test with SNB-75; 27.5 µM (inactive) in the test on TK-10; 27 µM (inactive) in the test with SF-268; 43.5 µM (inactive) in the test with NCI-H226; 30.1 µM (inactive) in the test with SN12C. In addition, the GI50 in the test with MOLT-4 is > 100 µM (inactive); with CAKI-1, 42 µM (inactive); with DU-145, > 100 µM (inactive); with SK-OV-3 it was 28.7 µM (inactive); in the test on SK-MEL-2, 34.2 µM (inactive); with BT-549 it was > 100 µM (inactive). The GI50 with K562 is 71.4 µM (inactive); in the test with HT-29 it was 52.8 µM (inactive); in the test with SNB-19, 20.6 µM (inactive); with 786-0, 17.9 µM (inactive); in the test on RXF 393 it was 19.1 µM (inactive); with COLO 205, > 100 µM (inactive). Moreover, the figures for the GI50 in the test with UO-31 and with MDA-MB-435 were 17.7 µM (inactive) and 16.4 µM (inactive), respectively.

Turning to `COc1cc(C)cc2c(-c3c(O)cc(O)c4c3C[C@H](C)N[C@H]4C)cc(-c3cc(-c4c(O)cc(O)c5c4C[C@H](C)N[C@H]5C)c4cc(C)cc(OC)c4c3O)c(O)c12`, the GI50 in the test on M14, in the test on SNB-75, in the test on TK-10, in the test on SF-268, in the test with NCI-H226 and with SN12C was > 100 µM (inactive) in each case. Further, the GI50 in the test on MOLT-4, with CAKI-1, in the test with DU-145, in the test with SK-OV-3, in the test with SK-MEL-2 and with BT-549 was > 100 µM (inactive) each time. Moreover, the GI50 is > 100 µM (inactive) with K562; 36 µM (inactive) with HT-29; > 100 µM (inactive) in the test on SNB-19; 26.9 µM (inactive) with 786-0; > 100 µM (inactive) with RXF 393; > 100 µM (inactive) in the test on COLO 205. The GI50 with UO-31 is > 100 µM (inactive); with MDA-MB-435, 54.3 µM (inactive).

For `O=C(O)C(Sc1ccc(Cl)cc1)Sc1ccc(Cl)cc1`, the GI50 in the test on M14 is 39.6 µM (inactive); in the test on SNB-75, 89.7 µM (inactive); in the test on TK-10 it was 48.6 µM (inactive); in the test on SF-268, 48.9 µM (inactive); with NCI-H226, 51.9 µM (inactive); in the test with SN12C, 47 µM (inactive). Moreover, the GI50 is 41.3 µM (inactive) in the test on MOLT-4; 82.8 µM (inactive) in the test with CAKI-1; 71 µM (inactive) in the test with DU-145; > 100 µM (inactive) in the test with SK-OV-3; 26.3 µM (inactive) in the test with SK-MEL-2; 54.5 µM (inactive) in the test on BT-549. Besides, the GI50 in the test with K562 is 33.1 µM (inactive); in the test with HT-29 it was 43.3 µM (inactive); in the test on SNB-19, 40.6 µM (inactive); in the test with 786-0, 48 µM (inactive); with RXF 393, > 100 µM (inactive); in the test on COLO 205, 25.9 µM (inactive). The GI50 is 29.7 µM (inactive) with UO-31 and 43.1 µM (inactive) in the test with MDA-MB-435.

Consider `Nc1ccccc1C(=O)NC(=O)Nc1ccc(Oc2ncc(Br)cn2)c(Cl)c1`, for which the GI50 in the test on M14 is 0.0152 µM (active); with SNB-75 it was < 0.01 µM (active); with TK-10, 0.0274 µM (active); in the test on SF-268, < 0.01 µM (active); in the test on NCI-H226 it was 0.0472 µM (active); in the test on SN12C, 0.0133 µM (active). Further, the GI50 was < 0.01 µM (active) in the test on MOLT-4; < 0.01 µM (active) in the test with CAKI-1; < 0.0123 µM (active) with DU-145; < 0.01 µM (active) with SK-OV-3; < 0.0929 µM (active) in the test with SK-MEL-2; 2.48 µM (inactive) in the test with BT-549. In addition, the GI50 is < 0.01 µM (active) in the test on K562; < 0.01 µM (active) in the test on HT-29; 0.0247 µM (active) in the test on SNB-19; < 0.01 µM (active) with 786-0; 0.0261 µM (active) in the test on RXF 393; < 0.01 µM (active) in the test on COLO 205. The GI50 in the test with UO-31 is 0.014 µM (active); in the test on MDA-MB-435 it was < 0.01 µM (active).

As to `COc1cc2c(/C=C3/C(=O)N(C)c4ccccc43)c(Cl)[nH]c2cc1C`, the GI50 in the test with M14 is 0.195 µM (active); in the test on SNB-75, 0.321 µM (active); in the test on TK-10 it was 0.284 µM (active); in the test on SF-268, 0.207 µM (active); in the test with NCI-H226 it was 0.449 µM (active); with SN12C, 0.471 µM (active). Further, the GI50 was 0.282 µM (active) with MOLT-4; 0.509 µM (active) in the test on CAKI-1; 0.246 µM (active) in the test on DU-145; 0.184 µM (active) in the test on SK-OV-3; 0.325 µM (active) with SK-MEL-2; 0.321 µM (active) in the test with BT-549. For the same compound, the GI50 is 0.0966 µM (active) in the test on K562; 0.328 µM (active) with HT-29; 0.253 µM (active) with SNB-19; 0.3 µM (active) in the test with 786-0; 0.746 µM (active) with RXF 393; 0.216 µM (active) in the test on COLO 205. In addition, the GI50 is 2.28 µM (inactive) in the test with UO-31 and 0.0277 µM (active) in the test on MDA-MB-435.

The record behind these values is ChEMBL document CHEMBL1201862, “PubChem BioAssay data set” (2004).
